The subject of data set [1] is MPTP Mouse Model of Parkinson's Disease. The data set can be described thus: MPTP-induced neurotoxicity in MPTP mouse model of Parkinson's disease (striatal tyrosine hydroxylase ELISA). The format is in vivo, C57BL/6J mice. Conditions: mice on control diets, relative to saline-injected mice. From the text: MPTP (1-methyl-4-phenyl-1,2,3,6-tetrahydropyridine) is routinely used as a chemical agent that induces Parkinson's disease-like neurodegeneration in cellular and animal models. Both Parkinson's Disease and MPTP-induced neurotoxicity are associated with a number of different biomarkers including reduction of tyrosine hydroxylase levels and activity. Tyrosine hydroxylase is a key enzyme in the dopamine biosynthesis pathway as it is involved in the conversion of tyrosine to […]. Tyrosine hydroxylase activity is regulated by its phosphorylation status and PP2A is known to be involved in this regulation.
C57BL/6J mice, aged 2-3 months were fed ad libitum, either standard rodent chow (Control), or rodent chow formulated with 0.1 g Compound I-63, or 0.001 g Compound I-63 per 100 g chow (0.1% and 0.001% Compound I-63, respectively); water was changed weekly. Mice were housed at 23° C., on a 12 hour light and dark cycle, with 6 mice per cage. After 2 weeks, 8-12 mice each from the Control, 0.1% Compound 1-63 and 0.001% Compound I-63 groups were injected with either saline, or 10 mg/kg MPTP i.e., four times, every 2 hours, on the same day. Mice were then maintained on their respective feeds for another week, at which point they were sacrificed by cervical dislocation and brains dissected for biochemical analyses.
Striatal tyrosine hydroxylase (TH) content was measured by ELISA as follows. Ninety-six well microliter plates (Thermo Labsystems) were incubated overnight at 4° C. with monoclonal anti-TH antibody (1:500; Calbiochem) in 8 mM sodium phosphate, 2 mM potassium phosphate, and 0.14 M sodium chloride, pH 7.4 (PBS). Wells were washed four times with PBS and then blocked for 1 hour using 5% (w/v) Carnation (Nestle) nonfat dry milk in PBS. Striatal tissue samples were homogenized by sonication in PBS-0.5% Triton X-100 (PBST) with 0.25% (w/v) SDS. […] The reaction product was measured fluorometrically within the linear range of detection (excitation:emission ratio of 530:580 nm). […] Data were expressed as percent TH levels in MPTP-treated mice relative to saline-injected mice. […]

The subject of another data set is Ob/Ob Mice. The data set can be described thus: Non-fasted glucose levels in ob/ob mice. The data set is classed as in vivo. Particulars: homozygous obese mice, compound in diet for 14 days. From the text:
They are also hypometabolic and hypothermic. The obesity is characterized by an increase in both the number and the size of adipocytes. Although hyperphagia contributes to the obesity, homozygotes gain excess weight and deposit excess fat even when restricted to a diet sufficient for normal weight maintenance in lean mice. Mice heterozygous for the Lep^ob mutation appear like wild-type and are lean.
Forty-eight (48) B6.V-Lep^ob/J mice (00632, The Jackson Laboratory, JAX^6 mice), homozygous for the Lep^ob mutation and thirty six (36) controls B6.V-Lep^ob/J-lean, heterozygous for the Lep^ob mutation were used to study the effect of SIG1012 on non-fasted glucose levels. The mice were ear notched for identification and housed in individually and positively ventilated polycarbonate cages with HEPA filtered air at a density of 3 mice per cage. Bed-o-cob corn cob bedding was used and cages were changed every two weeks. The animal room was lighted entirely with artificial fluorescent lighting, with a controlled 12 h light/dark cycle (7 am to 7 pm light). The normal temperature and relative humidity ranges in the animal rooms were 22±4° C. and 50±15%, respectively. The animal rooms were set to have 15 air exchanges per hour. Filtered tap water, acidified to a pH of 2.8 to 3.2, and LabDiet AIN-76A was provided ad libitum.
Following acclimation, mice were assigned to groups A through G according to their body weight and genotype:
A Lean heterozygotes—B6.V-Lep^ob/J-lean Mice Fed Control Diet (AIN-76A);
B Lean heterozygotes—B6.V-Lep^ob/J-lean Mice Fed “Low” Compound I-63 (AIN-76A with 0.001% Compound I-63);
C Lean heterozygotes—B6.V-Lep^ob/J-lean Mice Fed “Medium” Compound I-63 (AIN-76A with 0.1% Compound I-63);
D Obese homozygotes—B6. V-Lep^ob/J Mice Fed Control Diet (AIN-76A);
E Obese homozygotes—B6N-Lep^ob/J Mice Fed “Low” Compound I-63 (AIN-76A with 0.001% Compound I-63); […]
Mice from Groups A through G were maintained on the respective diet for 14 days and blood glucose levels were measured weekly.

Data set [2] deals with T1, PP2A (Homo sapiens, UniProt P67775).
T1 construct: made in house
T1 sequence (P67775 whole entry): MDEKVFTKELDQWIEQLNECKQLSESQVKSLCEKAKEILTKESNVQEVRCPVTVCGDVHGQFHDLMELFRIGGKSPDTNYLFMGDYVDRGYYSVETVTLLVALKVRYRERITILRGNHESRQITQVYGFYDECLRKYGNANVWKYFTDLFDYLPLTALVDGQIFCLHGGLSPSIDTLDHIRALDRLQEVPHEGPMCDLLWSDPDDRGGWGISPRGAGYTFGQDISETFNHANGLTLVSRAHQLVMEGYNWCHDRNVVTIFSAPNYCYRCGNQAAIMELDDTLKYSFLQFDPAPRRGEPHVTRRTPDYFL
T1 sequence (P30153 whole entry partner): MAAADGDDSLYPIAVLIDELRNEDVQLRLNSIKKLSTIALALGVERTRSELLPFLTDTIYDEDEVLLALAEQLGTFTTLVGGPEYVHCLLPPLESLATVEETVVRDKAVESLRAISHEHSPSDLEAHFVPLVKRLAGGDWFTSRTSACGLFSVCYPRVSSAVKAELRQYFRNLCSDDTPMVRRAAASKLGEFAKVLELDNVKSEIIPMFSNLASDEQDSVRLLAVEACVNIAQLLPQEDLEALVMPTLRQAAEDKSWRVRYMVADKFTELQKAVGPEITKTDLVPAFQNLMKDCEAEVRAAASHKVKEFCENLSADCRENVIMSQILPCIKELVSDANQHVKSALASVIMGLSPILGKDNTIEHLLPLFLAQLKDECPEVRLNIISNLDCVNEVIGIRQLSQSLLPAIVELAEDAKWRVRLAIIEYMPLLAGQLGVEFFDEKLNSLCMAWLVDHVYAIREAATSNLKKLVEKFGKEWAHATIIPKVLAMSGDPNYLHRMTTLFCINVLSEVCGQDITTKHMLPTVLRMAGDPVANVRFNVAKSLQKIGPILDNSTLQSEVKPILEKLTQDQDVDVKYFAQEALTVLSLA
The data set can be described thus: Phosphatase activity of PP2A using pNPP as substrate. The format is biochemical. Conditions: un-methylated PP2A, non-protein substrate pNPP, absence of ME and MT. The protocol: PP2A (10-200 nM) and pNPP (5-10 mM, Sigma) were mixed into 96-well plate (Fisher Scientific Inc.) in 50 μL of the buffer required. Reactions were performed at room temperature, and fully stopped by adding equal volume of 0.1 M EDTA. Production of p-nitrophenol […] was quantified by absorbance of reaction mixtures at 405 nm using the VMax® microplate reader (Molecular Devices).

For data set [3], the target named is T1, PP2A. The data set can be described thus: Phosphatase activity of PP2A using phosphorylase a as substrate. The format is biochemical. Conditions: un-methylated PP2A, protein substrate phosphorylase a, absence of ME and MT. The protocol: After the reaction, proteins were precipitated by 50% (NH4)2SO4 (final concentration) twice, and collected by centrifugation. The pellet was re-dissolved and dialyzed in a buffer containing 50 mM Tris-HCl (pH6.9) and ImM DTT for 2×2 L at 4° C. overnight. Phosphorylase a (phospho-phosphorylase b) crystallized during the dialysis. The dialysate was centrifuged 14,000 r.p.m at 4° C. for 30 minutes, the supernatant was removed and purified ^32P-labelled phosphorylase a was re-dissolved in +50% glycerol, and stored at −20° C.
To measure PP2A's phosphatase activity, PP2A (5-20 nM) was incubated with phosphorylase a (5-10 μM) at 37° C. 10% TCA (final concentration) and was added to the reaction to precipitate proteins. Supernatant that contains free ^32P-phosphate group was added into scintillation counting solution (Ecoscint, National Diagnostics), and counted by scintillation counter (LS 6000SE, Beckman).

The target in data set [4] is T2, protein phosphatase specific protein methylesterase (MEase) (Homo sapiens, UniProt Q9Y570).
T2 construct: made in house
T2 sequence (Q9Y570 1-386): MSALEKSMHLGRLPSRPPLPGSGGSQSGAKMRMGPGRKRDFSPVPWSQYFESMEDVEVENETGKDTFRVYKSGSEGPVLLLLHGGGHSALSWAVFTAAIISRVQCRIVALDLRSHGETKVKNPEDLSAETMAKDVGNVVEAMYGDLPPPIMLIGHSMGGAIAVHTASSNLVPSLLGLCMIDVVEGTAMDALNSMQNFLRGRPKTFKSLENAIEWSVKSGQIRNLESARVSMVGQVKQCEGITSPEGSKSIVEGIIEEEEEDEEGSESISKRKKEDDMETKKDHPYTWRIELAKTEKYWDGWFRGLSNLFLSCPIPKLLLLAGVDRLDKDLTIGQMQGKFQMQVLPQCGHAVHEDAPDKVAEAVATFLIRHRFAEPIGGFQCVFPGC
As to the kind of experiment: PP2A demethylation with [3H]-SAM and purified proteins (methylesterase activity). The format is biochemical. Conditions: purified methylated PP2A and MEase; read-out: ME (IC50). The protocol:
PP2A (methylated and unmethylated) were eluted with 1.6 mL of Buffer A containing 350 mM NaCl. Fractions (0.2 mL each) were collected and the radioactivity in each fraction was measured using the scintillation counter (LS 6000SE, Beckman). Fractions with highest radioactivity were containing purified methylated PP2A were pooled with a total volume of 0.6 mL-0.8 mL. Purified methylated PP2A (50 nM-100 nM) was incubated with MEase (5 nM-20 nM) in 20 μl-50 μl reaction at room temperature for 30 minutes. The reaction was terminated by adding TCA (2 μl-6 μl) to a final concentration of 10%. Released [^3H]-methanol in supernatants was counted with scintillation counter (LS 6000SE, Beckman).

Data set [5] addresses T3, protein phosphatase 2A specific methyltransferase (MTase) (Homo sapiens, UniProt Q9UIC8).
T3 construct: His; made in house
As to the kind of experiment: PP2A methylation in 96-well plate format (methyltransferase activity). Conditions: purified PP2A, MTase and [3H]-SAM; read-out: MT (IC50). The format is biochemical. The protocol: Purified PP2A, MTase and [^3H]-SAM, were incubated in reaction buffer at 37° C. At the end of the reaction, mixture was added onto the membranes of 96-well filter plate (Multiscreen™, Millipore). The membranes were then pre-wetted with 70% ethanol (50 μL/well) and then subsequently washed with water (2×200 μL/well). The reaction in each well was terminated and the proteins (5 μL-20 μL) were precipitated by adding 25% ice-cold TCA. The plate was kept on ice for 30 minutes to ensure completion of protein precipitation. Excess of the free SAM was then removed by washing with 5% cold TCA ([…]) and 70% cold ethanol (2×100 μL/well). Membranes were air-dried, radioactivity in each well was counted by TopCount^NXT scintillation counter (Packard) with 25 μL/well of Microsinct™ 20 (PerkinElmer).

Another data set concerns phosphorylated Tau. The data set can be described thus: Phosphorylated tau in vivo at four weeks (pS396 Western blot of brain). Particulars: 0.1% in chow, phospho-Serine 396. Also noted: species or system mice. The protocol:
Swiss Webster mice (9-12 weeks old) were fed ad libitum, either standard rodent chow (Control), or rodent chow formulated with 0.1 g Compound I-63 per 100 g chow (0.1% Compound I-63) or 0.1 g Compound I-62 per 100 g chow (0.1% Compound I-62); water was changed weekly. Mice were housed at 23° C., on a 12 hour light and dark cycle, with 6 mice per cage. At 4 weeks, six mice from the Control, 0.1% Compound I-63 and 0.1% Compound I-62 groups were sacrificed by cervical dislocation, brains removed, snap-frozen in liquid nitrogen, and stored at −80° C. Brains were homogenized in 350 pi of buffer containing 20 mM MOPS-Na, pH 7.2, 1 mM EDTA/DTT, 0.5 mg/L of aprotinin, leupeptin and pepstatin, 100 nM okadaic acid, and clarified by centrifugation (14000 rpm, 10 min, 4° C.). Supernatant protein concentrations were measured by the Bradford method, 4 volumes of the supernatant and 1 volume of 5×SDS sample buffer were mixed and boiled for 2 minutes. Boiled homogenate ([…]) were loaded on 12% polyacrylamide gels, and transferred to nitrocellulose membranes. […] Protein bands were detected with the ECL Plus reagent (GE Healthcare) and blots scanned on a Molecular Dynamics Storm Imager. […]

SMILES strings stand for the structures. A value given as a limit tells only on which side of the number the result lay.

T3 sequence (Q9UIC8 whole entry): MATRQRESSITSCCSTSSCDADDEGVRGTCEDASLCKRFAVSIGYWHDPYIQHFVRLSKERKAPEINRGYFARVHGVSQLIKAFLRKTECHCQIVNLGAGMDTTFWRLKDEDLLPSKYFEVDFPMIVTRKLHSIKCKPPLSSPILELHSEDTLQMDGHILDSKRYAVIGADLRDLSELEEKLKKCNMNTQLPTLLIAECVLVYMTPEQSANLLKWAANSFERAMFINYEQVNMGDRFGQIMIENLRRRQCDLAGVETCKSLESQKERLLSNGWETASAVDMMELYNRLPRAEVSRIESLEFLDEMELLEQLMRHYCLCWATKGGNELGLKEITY

Turning to `CN1CC=C(c2ccccc2)CC1` [MPTP, 1-methyl-4-phenyl-1,2,3,6-tetrahydropyridine, reference compound], the “reduction of tyrosine hydroxylase levels” value in data set [1] was 60%.

Turning to `CN(CCOc1ccc(CC2SC(=O)NC2=O)cc1)c1ccccn1` (stereo not shown) [Rosiglitizone, reference compound], the “reduction in non-fasted blood glucose levels” value with Ob/Ob Mice was 66%.

For `CCCCCCCCCCCCCCCCCCCCCC(=O)NCCc1c[nH]c2ccc(O)cc12` [Compound I-62, N-(2-(5-hydroxy-1H-indol-3-yl)ethyl)docosanamide], the IC50 was 10 to 100 µM against PP2A [2], more than 100 µM against PP2A [3], 10 to 100 µM in data set [4] and 10 to 100 µM in data set [5]. Moreover, the “lowering of phosphorylated tau levels in the brain compared to control” value with phosphorylated Tau is on record as 40%.

Values taken from patent publication US10583119B2, “Compounds, compositions and methods for making the same” (Signum Biosciences, Inc., priority 2008, dated 2020).
